# Data from US20130059783A1, “COMPOSITIONS AND METHODS FOR EXPANDING BFU-E CELLS” (priority 2010, published 2013).
# Legend:
# Assay type in all cases: cell-based, mouse
# BFU-E cells [1] = assay: FACS analysis of c-kit expression of BFU-E cells in SFELE culture; details: day 3 of culture, 100 nM Dex
# Protocol: (§1) FIGS. 1A-1F. Glucocorticoids stimulate stress erythropoiesis by enhancing erythroblast output predominantly from BFU-E progenitors. […] Error bars show one standard deviation. […] Error bars show one standard deviation. […] Shown is the fraction of c-kit+ cells after 72 hours. […] Cell numbers in each clone were estimated under the microscope on Day 8. 80% of sorted BFU-E cells form more than 100 daughter cells in erythroid expansion culture.
# BFU-E cells [2] = assay: Colony forming assays of sorted BFU-E fractions (Table S2)
# Source text: Separation of BFU-E and CFU-E cells by expression of CD71, CD24a or both CD71 and CD24a. C-kit positive BFU-E and CFU-E cells were sorted from FLEP cells based on expression of CD71, CD24a or both CD71 and CD24a. In all experiments the BFU-E fraction was the subset of c-kit^positive FLEP cells with the 10% lowest expression of CD71 and/or CD24a, while the CFU-E fraction was the subset with 20% highest expression of CD71 and/or CD24a. Sorted BFU-E and CFU-E populations were subjected to colony forming assays under two different conditions. […] The number of CFU-E colonies (±standard deviation) is shown. The sorted “BFU-E” populations mostly formed small CFU-E clusters rather than single CFU-E colonies in these assays. These CFU-E clusters are formed by precursors to CFU-Es and were scored separately as multi-CFU-Es. The number of “multi-CFU-Es” is not shown since these cells likely represent the same cells as those forming small BFU-E colonies.
# The potential of the sorted cells to form large BFU-E, small BFU-E, CFU-G/M/Mk, and CFU-GEMM colonies (±standard deviation) was determined by a second assay in methyl cellulose containing 10U Epo, 20 nM IL-3, 20 nM IL-6 and 50 nM SCF per mL, and was scored at day 8-9. […] To determine the effect of DMOG, colony assays of sorted BFU-E (CD71 and CD24a^10% low) cells were also performed in the presence of 333 μM DMOG. In agreement with the finding that DMOG enhances BFU-E self-renewal BFU-E colonies were larger with a more immature appearance in the presence of DMOG and Dex. Therefore, in the presence of DMOG and Dex most BFU-E colonies were scored as “large BFU-Es.”
# No GEMM colonies were formed (Table S2).
# (§2) Colonies were scored after 3 days. […] The number of hemoglobinized early BFU-E and late BFU-E colonies was determined after 8-9 days following staining with 2,7-Diaminofluorene (Sigma Chemical, St. Louis, Mo.).
# BFU-E cells [3] = assay: Single BFU-E cell culture in SFELE medium
# Protocol: as §1
# The “BFU-E” cell population that contains the GC-responsive cells, while highly enriched for BFU-Es, is a heterogeneous mix of erythroid progenitors. In order to determine the effect of GCs at the single cell level, we performed single “BFU-E” cell culture experiments (FIG. 1E).
# CFU-E cells = assay: SFELE progenitor growth assay of sorted CFU-E cells; details: 100 nM Dex
# Protocol: FIGS. 1A-1F. […] Error bars show one standard deviation. […] Error bars show one standard deviation. […] Shown is the fraction of c-kit+ cells after 72 hours. […] Cell numbers in each clone were estimated under the microscope on Day 8.
# FIGS. 3A-3B. […] The experimental protocol was similar to that used in FIGS. 1A and B except that the CFU-E and BFU-E cells were purer (CD71 and CD24a^20% high and CD71 and CD24a^10% low, respectively). […] (A) Proliferation of sorted CFU-E cells. […] Error bars show one standard deviation. (B) Proliferation of sorted BFU-E cells. […] Error bars show one standard deviation.
# We developed a modified version of the serum free erythroid liquid expansion culture (SFELE) medium described by Dolzning et al. (Dolznig et al., 2006).
# [4] = tested on: fetal liver erythroid progenitor (FLEP) cells; assay: Colony forming assays of magnetically depleted fetal liver cells (Table S1)
# Protocol: The negatively enriched cell populations were subjected to colony forming assays under two different conditions. […] CFU-E colonies were counted 3 days later. […] These cells were cultured 8-9 days before late BFU-E, early BFU-E, CFU-G/M/Mk (granulocyte, monocyte, megakaryocyte), and CFU-GEMM (granulocyte, erythrocyte, monocyte, megakaryocyte) colonies were scored. BFU-Es consisting of a cluster of only 5-20 CFU-Es were scored as late, while larger BFU-Es were scored as early. 2,7-fluorenediamine was used to stain hemoglobin-containing colonies in the plates. […] Standard deviation between experiments is shown in parenthesis.
# The first step towards enrichment of BFU-E and CFU-E cells was to remove more mature blood cells from single cell suspensions of fetal livers by magnetic column depletion. We stained fetal liver cells with a panel of biotin labeled anti-lineage (Lin) antibodies (Ter119, B220, Mac-1, CD3 and Gr-1), followed by anti-biotin tetramer and magnetic colloid labeling. All positive cells were depleted using magnetic columns.
# as §2
# [5] = CD24a 10% low cells, 100 nM Dex
# [6] = CD71/CD24a 10% low cells, 100 nM Dex and/or 333 μM DMOG
# [7] = purified CD71 10% low cells, with Dex
# [8] = Lin− fetal liver cells, EPO, SCF, IL-3, IL-6, 100 nM Dex
# [9] = Lin−, CD32/16− cells, 100 nM Dex
# [10] = Lin−, CD32/16−, Sca-1− cells, 100 nM Dex
# [11] = Lin−, CD32/16−, Sca-1−, CD41− cells, 100 nM Dex
# [12] = Lin−, CD32/16−, Sca-1−, CD41−, CD34− (FLEP cells), 100 nM Dex
smiles,measurement,setting,value
"C[C@@H]1C[C@H]2[C@@H]3CCC4=CC(=O)C=C[C@]4(C)[C@@]3(F)[C@@H](O)C[C@]2(C)[C@@]1(O)C(=O)CO [Dex, dexamethasone]",Cells still expressing c-kit,BFU-E cells [1],55%
same,CFU-E colonies,BFU-E cells [2]; [5],96 (±23) colonies per 1000 plated cells
same,CFU-G/M/Meg colonies,BFU-E cells [2]; [5],19 (±6) colonies per 1000 plated cells
same,GEMM colonies,BFU-E cells [2]; [5],0.8 (±2) colonies per 1000 plated cells
same,large BFU-E colonies,BFU-E cells [2]; [5],178 (±28) colonies per 1000 plated cells
same,small BFU-E colonies,BFU-E cells [2]; [5],336 (±27) colonies per 1000 plated cells
same,CFU-E colonies,"BFU-E cells [2]; CD71 10% low cells, 100 nM Dex",66 (±28) colonies per 1000 plated cells
same,CFU-G/M/Meg colonies,"BFU-E cells [2]; CD71 10% low cells, 100 nM Dex",20 (±21) colonies per 1000 plated cells
same,GEMM colonies,"BFU-E cells [2]; CD71 10% low cells, 100 nM Dex",0 colonies per 1000 plated cells
same,large BFU-E colonies,"BFU-E cells [2]; CD71 10% low cells, 100 nM Dex",222 (±84) colonies per 1000 plated cells
same,small BFU-E colonies,"BFU-E cells [2]; CD71 10% low cells, 100 nM Dex",289 (±85) colonies per 1000 plated cells
same,CFU-E colonies,BFU-E cells [2]; [6],33 (±10) colonies per 1000 plated cells
same,CFU-G/M/Meg colonies,BFU-E cells [2]; [6],7 (±2) colonies per 1000 plated cells
same,GEMM colonies,BFU-E cells [2]; [6],0 colonies per 1000 plated cells
same,large BFU-E colonies,BFU-E cells [2]; [6],412 (±23) colonies per 1000 plated cells
same,small BFU-E colonies,BFU-E cells [2]; [6],251 (±40) colonies per 1000 plated cells
same,Cells forming CFU-E colonies,BFU-E cells [2]; [7],6.6%
same,Cells forming CFU-G/M/Meg colonies,BFU-E cells [2]; [7],2.0%
same,Cells forming early BFU-Es,BFU-E cells [2]; [7],22%
same,Cells forming late BFU-E colonies,BFU-E cells [2]; [7],29%
same,Erythroblasts generated by individual BFU-E cells,"BFU-E cells [3]; day 8, 100 nM Dex","more than 300,000 erythroblasts"
same,Cell divisions performed by some BFU-E cells,"BFU-E cells [3]; in 8 days, 100 nM Dex",more than 18 cell divisions
same,Additional cell divisions allowed,"BFU-E cells [3]; single cell level, 100 nM Dex versus without Dex",more than 6 cell divisions
same,Average number of erythroblasts formed from each CFU-E cell,CFU-E cells,28
same,"Expansion of sorted CFU-E cells (production of erythroblasts), peak","CFU-E cells; CD71 20% high cells, peak at day 3",28 fold
same,"CFU-G/M/Meg colonies, scored day 8-9",[4]; [8],25 (±5) colonies per 1000 plated cells
same,"GEMM colonies, scored day 8-9",[4]; [8],7 (±4) colonies per 1000 plated cells
same,"early BFU-E colonies, scored day 8-9",[4]; [8],39 (±12) colonies per 1000 plated cells
same,"late BFU-E colonies, scored day 8-9",[4]; [8],53 (±13) colonies per 1000 plated cells
same,"CFU-E colonies, scored day 3","[4]; Lin− fetal liver cells, methylcellulose 10U EPO/mL, 100 nM Dex",472 (±79) colonies per 1000 plated cells
same,"CFU-G/M/Meg colonies, scored day 8-9",[4]; [9],17 (±10) colonies per 1000 plated cells
same,"GEMM colonies, scored day 8-9",[4]; [9],5 (±2) colonies per 1000 plated cells
same,"early BFU-E colonies, scored day 8-9",[4]; [9],37 (±12) colonies per 1000 plated cells
same,"late BFU-E colonies, scored day 8-9",[4]; [9],69 (±14) colonies per 1000 plated cells
same,"CFU-E colonies, scored day 3","[4]; Lin−, CD32/16− fetal liver cells, 10U EPO/mL, 100 nM Dex",560 (±245) colonies per 1000 plated cells
same,"CFU-G/M/Meg colonies, scored day 8-9",[4]; [10],7 (±3) colonies per 1000 plated cells
same,"GEMM colonies, scored day 8-9",[4]; [10],0.2 (±0.3) colonies per 1000 plated cells
same,"early BFU-E colonies, scored day 8-9",[4]; [10],24 (±5) colonies per 1000 plated cells
same,"late BFU-E colonies, scored day 8-9",[4]; [10],110 (±10) colonies per 1000 plated cells
same,"CFU-G/M/Meg colonies, scored day 8-9",[4]; [11],9 (±12) colonies per 1000 plated cells
same,"GEMM colonies, scored day 8-9",[4]; [11],0.3 (±0.4) colonies per 1000 plated cells
same,"early BFU-E colonies, scored day 8-9",[4]; [11],10 (±4) colonies per 1000 plated cells
same,"late BFU-E colonies, scored day 8-9",[4]; [11],142 (±77) colonies per 1000 plated cells
same,"CFU-G/M/Meg colonies, scored day 8-9",[4]; [12],4 (±6) colonies per 1000 plated cells
same,"GEMM colonies, scored day 8-9",[4]; [12],0.3 (±0.5) colonies per 1000 plated cells
same,"early BFU-E colonies, scored day 8-9",[4]; [12],23 (±17) colonies per 1000 plated cells
same,"late BFU-E colonies, scored day 8-9",[4]; [12],141 (±84) colonies per 1000 plated cells
